Like-named read-outs stand apart in the source and are kept apart here.
Experiments:
FGFR1 (h) = FGFR1 (h) (Homo sapiens, UniProt P11362); assay: FGFR1 (enzymatic assay), TR-FRET; format: biochemical; conditions: FGFR 1 pIC50, 5 μM ATP, 60 min; pIC50 = -log IC50 (M); average if tested multiple times
FGFR3 (h) = FGFR3 (h) (Homo sapiens, UniProt P22607); assay: FGFR3 (enzymatic assay), TR-FRET; format: biochemical; conditions: 60 min, pIC50 = -log IC50 (M), average if tested multiple times
KDR (h) = KDR (h) (Homo sapiens, UniProt P35968); assay: KDR (VEGFR2) (enzymatic assay), TR-FRET; format: biochemical; conditions: 120 min, pIC50 = -log IC50 (M), average if tested multiple times
Description: KDR (VEGFR2) (Enzymatic Assay)
In a final reaction volume of 30 μL, KDR (h) (150 ng/ml) was incubated with 50 mM HEPES pH 7.5, 6 mM MnCl2, 1 mM DTT, 0.1 mM Na3VO4, 0.01% Triton-X-100, 500 nM Btn-Flt3 and 3 μM ATP in the presence of compound (1% DMSO final). After incubation for 120 minutes at room temperature the reaction was stopped with 2.27 nM EU-anti P-Tyr, 7 mM EDTA, 31.25 nM SA-XL-665 and 0.02% BSA which was present for 60 minutes at room temperature. Time-Resolved Fluorescence Resonance Energy Transfer (TR-FRET) signal (ex340 nm. Em 620 nm, em 655 nm) was measured afterwards and results are expressed in RFU (Relative Fluorescence Units). In this assay, the inhibitory effect of different compound concentrations (range 10 μM to 0.1 nM) was determined and used to calculate an IC50 (M) and pIC50 (−log IC50) value.

[1] = tested on: Ba/F3-FGFR3-transfected cells; assay: Ba/F3-FGFR3 (minus IL3 or plus IL3) cellular proliferation assay, Alamar Blue; format: cell-based; conditions: plus IL3 (10 ng/ml murine IL3, counterscreen); 24 hours, Alamar Blue; read-out: BAF3-FGFR3 (PLUS IL3 Alamar Blue pIC50) (converted)
Summary of the method: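 Ba/F3-FGFR3 cells (20000 per well) in phenol red-free RPMI-1640 with 10% FBS were exposed to compound (10 μM to 0.1 nM) for 24 h at 37° C. Alamar Blue was then added for 4 h and fluorescence read (ex 540, em 590 nm) to give IC50/pIC50; the counterscreen was run with 10 ng/ml murine IL3.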

[2] = molecular target: T1, Ba/F3-KDR-transfected cells (Homo sapiens, UniProt P35968, cells depend on it, form not given); assay: Ba/F3-KDR (minus IL3 or plus IL3) cellular proliferation assay, Alamar Blue; format: cell-based; conditions: minus IL3; 24 hours, Alamar Blue
T1 construct: BAF3-KDR (MIN IL3 Alamar Blue pIC50); other: minus IL3; 24 hours, Alamar Blue
Description: (§1) Ba/F3-KDR (Minus IL3 or Plus IL3) (Cellular Proliferation Assay)
(§2) In a 384 well plate, 100 nl of compound dilution in DMSO was sprayed before adding 50 μl cell culture medium (phenol red free RPMI-1640, 10% FBS, 2 mM L-Glutamine and 50 μg/ml Gentamycin) containing 20000 cells per well of Ba/F3-KDR-transfected cells. Cells were put in an incubator at 37° C. and 5% CO2. After 24 hours, 10 μl of Alamar Blue solution (0.5 mM K3Fe(CN)6, 0.5 mM K4Fe(CN)6, 0.15 mM Resazurin and 100 mM Phosphate Buffer) was added to the wells, incubated for 4 hours at 37° C. and 5% CO2 before RFU's (Relative Fluorescence Units) (ex. 540 nm., em. 590 nm.) were measured in a fluorescence plate reader.
(§3) In this assay, the inhibitory effect of different compound concentrations (range 10 μM to 0.1 nM) was determined and used to calculate an IC50 (M) and pIC50 (−log IC50) value. As a counterscreen the same experiment was performed in the presence of 10 ng/ml murine IL3.

[3] = tested on: Ba/F3-KDR-transfected cells; assay: as above; format: cell-based; conditions: plus IL3 (10 ng/ml murine IL3, counterscreen); 24 hours, Alamar Blue; read-out: BAF3-KDR (PLUS IL3 Alamar Blue pIC50) (converted)
Description: as §1, §2, §3

[4] = molecular target: Ba/F3-FGFR4-transfected cells (Homo sapiens, UniProt P22455); assay: Ba/F3-FGFR4 cellular proliferation assay, Alamar Blue; format: cell-based; conditions: 24 hours
Description: Ba/F3-FGFR4 (Cellular Proliferation Assay)
as §2, with “Ba/F3-FGFR4-transfected” for “Ba/F3-KDR-transfected”
In this assay, the inhibitory effect of different compound concentrations (range 10 μM to 0.1 nM) was determined and used to calculate an IC50 (M) and pIC50 (−log IC50) value.

[5] = 25 μM ATP, read-out: hFGFR 3 pIC50 (converted)
[6] = 3 μM ATP, read-out: VEGFR KDR pIC50 (converted)

KDR (h), sequence (P35968 20-1356): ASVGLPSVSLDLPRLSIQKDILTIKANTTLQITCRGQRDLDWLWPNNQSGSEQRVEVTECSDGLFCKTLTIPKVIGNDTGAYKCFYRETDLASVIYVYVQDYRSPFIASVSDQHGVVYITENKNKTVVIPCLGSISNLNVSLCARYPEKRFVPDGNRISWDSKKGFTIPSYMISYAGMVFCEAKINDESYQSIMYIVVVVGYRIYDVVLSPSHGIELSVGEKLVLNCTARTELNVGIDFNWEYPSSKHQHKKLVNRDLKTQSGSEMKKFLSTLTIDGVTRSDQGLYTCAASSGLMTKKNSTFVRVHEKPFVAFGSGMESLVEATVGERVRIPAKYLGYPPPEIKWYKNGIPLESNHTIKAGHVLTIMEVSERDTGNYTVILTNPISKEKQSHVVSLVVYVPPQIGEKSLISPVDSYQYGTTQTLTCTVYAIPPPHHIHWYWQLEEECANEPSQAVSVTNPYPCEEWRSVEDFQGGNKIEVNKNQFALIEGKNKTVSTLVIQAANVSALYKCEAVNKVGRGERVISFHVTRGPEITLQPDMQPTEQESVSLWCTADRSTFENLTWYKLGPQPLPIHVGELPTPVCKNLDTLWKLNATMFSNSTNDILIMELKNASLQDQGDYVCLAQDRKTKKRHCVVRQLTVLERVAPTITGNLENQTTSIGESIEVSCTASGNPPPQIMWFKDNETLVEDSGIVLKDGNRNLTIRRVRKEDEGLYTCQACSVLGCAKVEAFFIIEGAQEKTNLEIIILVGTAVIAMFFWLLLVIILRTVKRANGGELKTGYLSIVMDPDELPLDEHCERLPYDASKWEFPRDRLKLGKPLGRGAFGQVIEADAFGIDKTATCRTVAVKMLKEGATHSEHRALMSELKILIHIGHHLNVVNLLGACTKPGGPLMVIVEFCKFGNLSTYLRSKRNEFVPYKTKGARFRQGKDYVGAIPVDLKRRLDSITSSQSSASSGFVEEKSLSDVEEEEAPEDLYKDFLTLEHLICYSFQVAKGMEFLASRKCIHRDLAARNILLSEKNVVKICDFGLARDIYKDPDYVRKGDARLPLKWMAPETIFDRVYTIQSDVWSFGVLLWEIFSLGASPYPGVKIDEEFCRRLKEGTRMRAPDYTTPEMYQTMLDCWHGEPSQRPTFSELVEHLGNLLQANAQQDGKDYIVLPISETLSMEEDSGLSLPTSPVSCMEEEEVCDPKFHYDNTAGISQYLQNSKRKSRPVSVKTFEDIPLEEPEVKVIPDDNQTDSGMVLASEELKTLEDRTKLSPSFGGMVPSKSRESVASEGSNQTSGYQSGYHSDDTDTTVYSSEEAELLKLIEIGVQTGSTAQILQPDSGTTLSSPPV
T1 sequence (P35968 whole entry, change not shown): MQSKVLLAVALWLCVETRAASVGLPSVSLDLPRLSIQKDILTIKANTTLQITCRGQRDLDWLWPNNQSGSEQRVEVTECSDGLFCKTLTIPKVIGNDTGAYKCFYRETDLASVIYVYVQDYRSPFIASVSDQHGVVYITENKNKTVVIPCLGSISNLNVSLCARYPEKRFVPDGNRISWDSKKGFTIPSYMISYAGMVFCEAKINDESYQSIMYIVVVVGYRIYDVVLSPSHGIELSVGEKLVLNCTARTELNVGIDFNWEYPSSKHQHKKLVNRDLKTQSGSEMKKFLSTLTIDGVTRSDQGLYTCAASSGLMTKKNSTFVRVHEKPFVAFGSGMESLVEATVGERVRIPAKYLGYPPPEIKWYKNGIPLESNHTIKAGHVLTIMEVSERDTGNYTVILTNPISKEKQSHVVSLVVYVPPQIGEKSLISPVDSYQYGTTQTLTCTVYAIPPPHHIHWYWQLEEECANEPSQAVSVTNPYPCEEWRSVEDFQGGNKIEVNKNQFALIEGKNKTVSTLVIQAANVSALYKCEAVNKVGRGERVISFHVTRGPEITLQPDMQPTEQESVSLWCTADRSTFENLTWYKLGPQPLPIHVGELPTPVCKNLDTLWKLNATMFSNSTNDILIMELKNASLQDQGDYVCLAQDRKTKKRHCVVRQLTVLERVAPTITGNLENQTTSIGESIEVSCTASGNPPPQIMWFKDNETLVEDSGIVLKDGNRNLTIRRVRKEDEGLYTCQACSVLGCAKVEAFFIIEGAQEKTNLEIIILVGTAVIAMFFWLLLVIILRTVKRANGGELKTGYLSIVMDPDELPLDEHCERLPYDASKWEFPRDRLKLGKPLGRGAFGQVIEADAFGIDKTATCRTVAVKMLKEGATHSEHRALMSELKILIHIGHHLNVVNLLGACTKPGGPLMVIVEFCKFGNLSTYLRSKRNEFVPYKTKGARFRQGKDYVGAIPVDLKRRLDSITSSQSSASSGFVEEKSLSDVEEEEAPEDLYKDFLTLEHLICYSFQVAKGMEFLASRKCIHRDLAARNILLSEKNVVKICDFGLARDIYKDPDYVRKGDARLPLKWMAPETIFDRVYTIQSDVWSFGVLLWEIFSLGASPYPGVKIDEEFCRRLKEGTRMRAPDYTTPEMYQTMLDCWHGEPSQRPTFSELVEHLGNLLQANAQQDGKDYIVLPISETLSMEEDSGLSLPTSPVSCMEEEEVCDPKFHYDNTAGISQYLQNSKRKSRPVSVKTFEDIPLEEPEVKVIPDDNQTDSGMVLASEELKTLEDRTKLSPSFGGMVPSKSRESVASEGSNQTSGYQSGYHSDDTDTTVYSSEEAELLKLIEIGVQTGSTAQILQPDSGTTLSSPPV
FGFR1 (h), sequence (P11362 22-822): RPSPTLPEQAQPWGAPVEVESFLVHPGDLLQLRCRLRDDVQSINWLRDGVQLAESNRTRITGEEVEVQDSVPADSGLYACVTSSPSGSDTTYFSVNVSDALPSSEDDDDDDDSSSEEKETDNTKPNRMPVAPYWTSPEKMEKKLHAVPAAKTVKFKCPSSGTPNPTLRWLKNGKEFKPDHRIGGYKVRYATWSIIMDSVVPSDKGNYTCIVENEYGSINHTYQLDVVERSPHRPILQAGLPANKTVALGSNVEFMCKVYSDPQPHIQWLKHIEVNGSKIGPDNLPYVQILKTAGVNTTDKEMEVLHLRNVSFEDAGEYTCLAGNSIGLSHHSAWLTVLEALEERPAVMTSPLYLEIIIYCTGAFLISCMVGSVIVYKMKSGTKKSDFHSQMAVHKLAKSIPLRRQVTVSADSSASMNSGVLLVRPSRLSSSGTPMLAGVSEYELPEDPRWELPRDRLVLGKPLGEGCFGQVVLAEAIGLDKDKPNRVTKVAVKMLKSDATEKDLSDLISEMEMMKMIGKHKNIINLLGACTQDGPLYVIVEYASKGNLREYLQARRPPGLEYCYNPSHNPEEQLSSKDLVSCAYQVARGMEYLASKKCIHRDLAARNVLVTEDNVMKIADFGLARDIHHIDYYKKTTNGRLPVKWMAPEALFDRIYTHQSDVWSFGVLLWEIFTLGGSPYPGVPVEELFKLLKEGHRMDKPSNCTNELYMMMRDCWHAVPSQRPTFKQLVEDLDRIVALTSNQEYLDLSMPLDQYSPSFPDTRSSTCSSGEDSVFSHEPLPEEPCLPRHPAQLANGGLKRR
Ba/F3-FGFR4-transfected cells, sequence (P22455 whole entry, change not shown): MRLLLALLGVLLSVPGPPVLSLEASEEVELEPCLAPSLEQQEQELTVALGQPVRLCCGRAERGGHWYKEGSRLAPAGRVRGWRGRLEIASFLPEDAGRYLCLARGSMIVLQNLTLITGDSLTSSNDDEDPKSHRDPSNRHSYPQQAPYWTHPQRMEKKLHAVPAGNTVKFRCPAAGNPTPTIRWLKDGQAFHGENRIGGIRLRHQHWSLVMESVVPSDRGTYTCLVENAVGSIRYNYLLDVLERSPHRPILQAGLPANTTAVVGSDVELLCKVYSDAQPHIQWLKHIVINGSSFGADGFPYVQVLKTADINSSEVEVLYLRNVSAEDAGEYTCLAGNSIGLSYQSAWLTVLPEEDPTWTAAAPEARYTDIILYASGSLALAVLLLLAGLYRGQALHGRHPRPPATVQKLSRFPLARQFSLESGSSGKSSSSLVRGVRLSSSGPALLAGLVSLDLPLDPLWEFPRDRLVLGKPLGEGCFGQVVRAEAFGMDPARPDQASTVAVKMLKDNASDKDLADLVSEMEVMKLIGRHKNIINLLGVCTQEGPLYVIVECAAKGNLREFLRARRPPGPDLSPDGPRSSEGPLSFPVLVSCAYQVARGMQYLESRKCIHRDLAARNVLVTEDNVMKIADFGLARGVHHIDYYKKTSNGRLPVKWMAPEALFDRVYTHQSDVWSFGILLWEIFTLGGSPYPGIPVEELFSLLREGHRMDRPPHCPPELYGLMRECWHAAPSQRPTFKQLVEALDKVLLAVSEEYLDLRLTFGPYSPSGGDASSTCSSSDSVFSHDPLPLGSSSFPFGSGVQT
FGFR3 (h), sequence (P22607 23-806): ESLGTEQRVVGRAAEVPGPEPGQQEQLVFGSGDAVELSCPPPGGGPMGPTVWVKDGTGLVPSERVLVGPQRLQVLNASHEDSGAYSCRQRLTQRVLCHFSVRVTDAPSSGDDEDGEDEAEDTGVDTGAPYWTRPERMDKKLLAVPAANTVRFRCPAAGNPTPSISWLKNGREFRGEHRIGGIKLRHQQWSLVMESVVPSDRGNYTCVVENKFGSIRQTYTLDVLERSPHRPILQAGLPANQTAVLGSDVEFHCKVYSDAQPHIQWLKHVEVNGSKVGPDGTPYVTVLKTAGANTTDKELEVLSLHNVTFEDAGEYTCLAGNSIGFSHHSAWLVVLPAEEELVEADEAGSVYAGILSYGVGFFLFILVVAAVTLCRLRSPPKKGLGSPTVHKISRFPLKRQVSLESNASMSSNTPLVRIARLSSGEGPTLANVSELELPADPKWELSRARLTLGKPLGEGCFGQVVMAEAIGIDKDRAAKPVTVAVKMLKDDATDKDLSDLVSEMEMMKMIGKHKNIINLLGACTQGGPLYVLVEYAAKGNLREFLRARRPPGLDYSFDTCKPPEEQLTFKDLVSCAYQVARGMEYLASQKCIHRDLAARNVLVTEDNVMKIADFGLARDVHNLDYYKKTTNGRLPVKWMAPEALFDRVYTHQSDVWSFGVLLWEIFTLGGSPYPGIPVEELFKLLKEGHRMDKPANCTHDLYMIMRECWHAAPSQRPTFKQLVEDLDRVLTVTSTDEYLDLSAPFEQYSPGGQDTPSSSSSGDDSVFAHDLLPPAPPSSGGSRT

| Compound | IC50 (FGFR1 (h)) [M] | IC50 (FGFR3 (h); [5]) [M] | IC50 (KDR (h); [6]) [M] | BAF3-KDR (MIN IL3 Alamar Blue pIC50) [2] | BAF3-FGFR 4 (pIC50) [4] | IC50 [1] [µM] | IC50 [3] [µM] | IC50 (FGFR3 (h); hFGFR 3 pIC50, 25 μM ATP) [M] | IC50 (KDR (h); VEGFR KDR pIC50, 3 μM ATP) [M] |
| --- | --- | --- | --- | --- | --- | --- | --- | --- | --- |
| COc1cc(Nc2ccc3ncc(-c4cnn(C5CCCCO5)c4)cc3c2)cc(OC)c1 (stereo not drawn) [Int. 8] | 9.55e-08 | 3.72e-08 | 3.16e-07 | <5 | 5.04 | > 10 | > 10 | – | – |
| COc1cc(OC)cc(N(CCNC(C)C)c2ccc3ncc(-c4cn[nH]c4)cc3c2)c1 [Compound 21] | – | 3.39e-09 | 1.02e-07 | 5.49 | 6.79 | > 10 | > 10 | – | – |
| COc1cc(OC)cc(N(Cc2ncc[nH]2)c2ccc3ncc(-c4ccncc4)cc3c2)c1 [Compound 57] | 2.82e-09 | 1.05e-09 | 4.57e-07 | <5 | 6.16 | – | – | – | – |
| COc1cc(OC)cc(N(CCCN2CCCC2CNS(=O)(=O)C(F)(F)F)c2ccc3ncc(-c4cnn(C)c4)cc3c2)c1 (stereo not drawn) [Compound 47] | 1.17e-09 | 1.32e-09 | 1.17e-08 | 6.44 | 7.44 | > 10 | > 10 | – | – |
| COc1cc(OC)cc(N(CCNC(C)C)c2ccc3ncc(-c4cnn(C5CCCCO5)c4)cc3c2)c1 (stereo not drawn) [Compound 22] | 1.2e-09 | 2.4e-09 | 4.37e-08 | 5.79 | ~7.11 | > 10 | > 10 | – | – |
| COc1cc(OC)c(F)c(N(CCNC(C)C)c2ccc3ncc(-c4cnn(C)c4)cc3c2)c1 [Compound 2] | 1.32e-09 | – | 2.57e-08 | 6.18 | 7.83 | – | – | 3.89e-09 | – |
| COc1cc(OC)c(F)c(N(CC#Cc2ncccc2OC)c2ccc3ncc(-c4cnn(C)c4)cc3c2)c1 [Compound 26] | 4.79e-09 | – | 4.27e-07 | 5.11 | 7.77 | – | – | 4.9e-09 | – |
| COc1cc(OC)cc(N(Cc2nccn2S(=O)(=O)N(C)C)c2ccc3ncc(-c4cccnc4)cc3c2)c1 [Compound 60] | – | 3.16e-08 | > 1e-06 | <5 | <5 | – | – | – | – |
| COc1cc(OC)cc(N(CCCN2CCCC2=O)c2ccc3ncc(-c4cnn(C)c4)cc3c2)c1 [Compound 10] | – | 1.55e-08 | – | 5.11 | 5.63 | – | – | – | 8.13e-08 |
| COc1cc(OC)cc(N(Cc2nccn2S(=O)(=O)N(C)C)c2ccc3ncc(-c4ccncc4)cc3c2)c1 [Compound 58] | – | 2.75e-08 | 7.24e-07 | <5 | <5 | > 10 | > 10 | – | – |

The next lines start with results.

| IC50 (FGFR1 (h)) [M] | IC50 (FGFR3 (h); [5]) [M] | IC50 (KDR (h); [6]) [M] | BAF3-KDR (MIN IL3 Alamar Blue pIC50) [2] | BAF3-FGFR 4 (pIC50) [4] | Compound | IC50 [1] [µM] | IC50 [3] [µM] | IC50 (FGFR3 (h); hFGFR 3 pIC50, 25 μM ATP) [M] | IC50 (KDR (h); VEGFR KDR pIC50, 3 μM ATP) [M] |
| --- | --- | --- | --- | --- | --- | --- | --- | --- | --- |
| – | ~1.1e-09 | 2.88e-07 | 5.05 | 6.6 | COc1cc(OC)cc(N(CC(O)C(F)(F)F)c2ccc3ncc(-c4cnn(C)c4)cc3c2)c1 (single isomer, unassigned) [Compound 24] | > 10 | > 10 | – | – |
| 5.62e-09 | 1.1e-08 | 1.66e-07 | <5 | 5.18 | COc1cc(OC)cc(N(Cc2nccn2S(=O)(=O)N(C)C)c2ccc3ncc(-c4cnn(C)c4)cc3c2)c1 [Compound 9] | > 10 | > 10 | – | – |
| 1.51e-08 | 1.35e-08 | 4.27e-07 | 5.07 | 5.4 | C#CCN(c1cc(OC)cc(OC)c1)c1ccc2ncc(-c3cnn(C)c3)cc2c1 [Compound 6] | > 10 | > 10 | – | – |
| 3.63e-09 | 3.39e-09 | 4.47e-08 | 5.42 | 6.39 | COc1cc(OC)cc(N(CCCN)c2ccc3ncc(-c4cnn(C)c4)cc3c2)c1 [Compound 11] | > 10 | > 10 | – | – |
| – | 7.94e-09 | 7.41e-08 | 5.635 | 7.19 | COc1cc(OC)cc(N(CCNC(C)C)c2ccc3ncc(-c4cnn(C)c4)cc3c2)c1 [Compound 1] | – | – | – | – |
| – | – | – | 5.1 | 5.71 | COc1cc(OC)cc(N(CCCN2CCCO2)c2ccc3ncc(-c4cnn(C)c4)cc3c2)c1 [Compound 19] | – | – | 5.62e-09 | 1e-07 |
| – | 7.94e-09 | 2.88e-07 | 5.02 | 7.17 | COc1cc(OC)cc(N(CC#Cc2nccn2C)c2ccc3ncc(-c4cnn(C)c4)cc3c2)c1 [Compound 48] | > 10 | > 10 | – | – |
| 1.64e-09 | 2.37e-09 | 3.76e-08 | 5.335 | 8.18 | COc1cccnc1C#CCN(c1ccc2ncc(-c3cnn(C)c3)cc2c1)c1c(F)c(OC)cc(OC)c1F [Compound 27] | – | – | – | – |
| 1.91e-08 | 5.89e-09 | 1.38e-07 | 5.45 | 5.87 | COc1cc(OC)cc(N(CCCO)c2ccc3ncc(-c4cnn(C)c4)cc3c2)c1 [Compound 4] | > 10 | > 10 | – | – |
| 4.68e-09 | 1.74e-09 | 8.51e-07 | <5 | 6.02 | COc1cc(OC)cc(N(Cc2ncc[nH]2)c2ccc3ncc(-c4cccnc4)cc3c2)c1 [Compound 59] | > 10 | > 10 | – | – |
| 1.07e-09 | 2.4e-09 | 1.48e-08 | 6.51 | ~8.02 | CNCCN(c1ccc2ncc(-c3cnn(C)c3)cc2c1)c1c(F)c(OC)cc(OC)c1F [Compound 43] | – | – | – | – |
| – | 2.29e-08 | 2.45e-07 | 5.18 | 5.5 | COc1cc(OC)cc(N(CCCNCC(F)(F)F)c2ccc3ncc(-c4cnn(C)c4)cc3c2)c1 [Compound 5] | – | – | – | – |
| 8.32e-08 | 5.89e-08 | > 1e-06 | <5 | 6.98 | COc1cc(OC)cc(N(CC#Cc2ncccc2OC)c2ccc3ncc(-c4cnn(C)c4)cc3c2)c1 [Compound 17] | > 10 | > 10 | – | – |
